Experimental data published in patent US20140134648A1, “METHODS OF DETERMINING THE HEALTH STATUS OF AN INDIVIDUAL” (NODALITY, INC., priority 2008, published 2014).
Entries after “also recorded” stand apart in the source; their conditions may differ.

Tested on: CD34+ myeloblast cells in healthy BMMCs
Assay: Effects of therapeutics on healthy bone marrow mononuclear cells: CD45 versus CD34 expression by flow cytometry
Assay type: cell-based
Details: live healthy BMMCs, 1:3 dilutions, 100 μM to 0.0017 μM, after 24 hours

SMILES | loss / viability of the rare population of CD34+ myeloblast cells
O=C(CCCCCCC(=O)Nc1ccccc1)NO [Vorinostat] | selective loss of rare population of CD34+ myeloblast cells in a dose-dependent fashion; also recorded: concentration dependent loss of CD34+ myeloblast cells
Nc1ncn([C@@H]2O[C@H](CO)[C@@H](O)[C@H]2O)c(=O)n1 [5-Azacytidine] | dose-dependent loss of a rare population of CD34+ myeloblast cells; also recorded: concentration dependent loss of CD34+ myeloblast cells
